Source: ChEMBL document CHEMBL6153147 (J Med Chem, 2025)

Assays:
[1] = Metabolic stability in mouse liver microsomes assessed as half life preincubated for 5 mins followed by NADPH addition by LC-MS/MS analysis; type: ADME, Microsome
[2] = Cmax in C57BL/6 mouse at 1 mg/kg, iv measured for 0.5 to […] htr by LC-MS/MS analysis; type: ADME, organism-based; settings: in vivo, time 0.5-12 hrs
[3] = Metabolic stability in mouse liver microsomes assessed as intrinsic clearance in microsome measured per mg protein preincubated for 5 mins followed by NADPH addition by LC-MS/MS analysis; type: ADME; settings: read-out: CLH
[4] = molecular target: T1, Serine/threonine-protein kinase PLK3 (Homo sapiens, UniProt Q9H4B4); assay: Inhibition of human PLK3 using ATF2 as substrate incubated for 40 mins in presence of [gamma-33P]ATP/Mg acetate by scintillation counting analysis
[5] = Acute toxicity in mouse assessed as body weight change at 500 mg/kg, IG qd treated for 7 days; type: organism-based; settings: in vivo, po, 168 h, time 7 day
Cytochrome P450 2C19 = Cytochrome P450 2C19 (Homo sapiens, UniProt P33261); assay: Inhibition of CYP2C19 in human liver microsomes using S-mephenytoin as substrate preincubated with compound followed by substrate addition measured after 10 mins in presence of NADPH by LC-MS/MS analysis; type: ADME, Microsome
[6] = Acute toxicity in mouse assessed as damage in heart at 500 mg/kg, IG qd treated for 7 days by H and E staining based analysis; type: organism-based; settings: in vivo, po, 168 h, time 7 day
[7] = molecular target: Epidermal growth factor receptor (Homo sapiens) (UniProt P00533); assay: Inhibition of human EGFR assessed as residual activity at 10 uM by kinome selectivity profiling analysis relative to control
[8] = molecular target: Serine/threonine-protein kinase PLK2 (Homo sapiens, UniProt Q9NYY3); assay: Inhibition of human PLK2 using ATF2 as substrate incubated for 40 mins in presence of [gamma-33P]ATP/Mg acetate by scintillation counting analysis
[9] = Stability of compound in human hepatocytes; type: ADME, cell-based, Hepatocyte
[10] = molecular target: Voltage-gated inwardly rectifying potassium channel KCNH2 (Homo sapiens, UniProt Q12809); assay: Inhibition of hERG transfected in CHO cells; type: toxicity, cell-based
[11] = Acute toxicity in mouse assessed as damage in kidney at 500 mg/kg, IG qd treated for 7 days by H and E staining based analysis; type: organism-based; settings: in vivo, po, 168 h, time 7 day
HEK-293T = assay: Cytotoxicity against HEK293T cells by CCK8 assay; type: toxicity, cell-based; settings: human, dose 0.1-30 µM
[12] = molecular target: cGMP-dependent protein kinase 2 (Homo sapiens) (UniProt Q13237); assay: Inhibition of human PRKG2 assessed as residual activity at 10 uM by kinome selectivity profiling analysis relative to control
[13] = Acute hematopoietic toxicity in mouse assessed as effect on platelets at 500 mg/kg, IG qd treated for 7 days; type: organism-based; settings: in vivo, po, 168 h, time 7 day
[14] = Stability of compound in rat hepatocytes; type: ADME, cell-based, Hepatocyte
[15] = Metabolic stability in dog liver microsomes assessed as intrinsic clearance preincubated for 5 mins followed by NADPH addition by LC-MS/MS analysis; type: ADME, Canis lupus familiaris, Microsome; settings: read-out: CLH
SW-620 = assay: cells; settings: Homo sapiens
[16] = molecular target: Dual specificity protein kinase CLK2 (Homo sapiens) (UniProt P49760); assay: Inhibition of human CLK2 assessed as residual activity at 10 uM by kinome selectivity profiling analysis relative to control
Cytochrome P450 2B6 = Cytochrome P450 2B6 (Homo sapiens, UniProt P20813); assay: Inhibition of CYP2B6 in human liver microsomes using bupropion as substrate preincubated with compound followed by substrate addition measured after 10 mins in presence of NADPH by LC-MS/MS analysis; type: ADME, Microsome
Cytochrome P450 3A4 = Cytochrome P450 3A4 (Homo sapiens, UniProt P08684); assay: Inhibition of CYP3A4 in human liver microsomes using midazolam as substrate preincubated with compound followed by substrate addition measured after 5 mins in presence of NADPH by LC-MS/MS analysis; type: ADME, Microsome
[17] = molecular target: Calcium/calmodulin-dependent protein kinase kinase 1 (Homo sapiens) (UniProt Q8N5S9); assay: Inhibition of human CaMKK1 assessed as residual activity at 10 uM by kinome selectivity profiling analysis relative to control
[18] = Oral bioavailability in C57BL/6 mouse at 10 mg/kg measured for 0.5 to […] htr by LC-MS/MS analysis; type: ADME, organism-based; settings: in vivo, time 0.5-12 hrs
CCRF-CEM = assay: cells; settings: Homo sapiens
Homo sapiens = organism: Homo sapiens; assay: Inhibition of human HRI assessed as residual activity at 10 uM by kinome selectivity profiling analysis relative to control
HL-60 = assay: cells; settings: Homo sapiens
[19] = molecular target: Myosin-IIIb (Homo sapiens) (UniProt Q8WXR4); assay: Inhibition of human MYO3B assessed as residual activity at 10 uM by kinome selectivity profiling analysis relative to control
[20] = Acute toxicity in mouse assessed as damage in lung at 500 mg/kg, IG qd treated for 7 days by H and E staining based analysis; type: organism-based; settings: in vivo, po, 168 h, time 7 day
[21] = molecular target: Calcium/calmodulin-dependent protein kinase kinase 2 (Homo sapiens) (UniProt Q96RR4); assay: Inhibition of human CaMKK2 assessed as residual activity at 10 uM by kinome selectivity profiling analysis relative to control
[22] = Toxicity in BALB/c mouse xenografted with human K562 cells assessed as change in body weight at 10 to 20 mg/kg, IG for 11 days treated on every 3 to 4 days; type: organism-based; settings: in vivo, po, 264 h, dose 10-20 mg/kg, time 11 day
[23] = Metabolic stability in mouse liver microsomes assessed as intrinsic clearance preincubated for 5 mins followed by NADPH addition by LC-MS/MS analysis; type: ADME, Microsome; settings: read-out: CLH
[24] = molecular target: TRAF2 and NCK-interacting protein kinase (Homo sapiens) (UniProt Q9UKE5); assay: Inhibition of human TNIK assessed as residual activity at 10 uM by kinome selectivity profiling analysis relative to control
NCI-H460 = assay: cells; settings: Homo sapiens
[25] = molecular target: T1, Serine/threonine-protein kinase PLK3; assay: Inhibition of human PLK3 assessed as residual activity at 10 uM by kinome selectivity profiling analysis relative to control
[26] = Acute toxicity in mouse assessed as effect on behaviour at 500 mg/kg, IG qd treated for 7 days; type: organism-based; settings: in vivo, po, 168 h, time 7 day
[27] = Effect on mitochondrial membrane integrity in HEK293T cells at 10 uM incubated for 24 hrs by JC-1 dye based analysis; type: toxicity, cell-based; settings: human, hek-293t
PC-9 = assay: cells; settings: Homo sapiens
[28] = molecular target: Serine/threonine-protein kinase MRCK alpha (Homo sapiens) (UniProt Q5VT25); assay: Inhibition of human MRCK-alpha assessed as residual activity at 10 uM by kinome selectivity profiling analysis relative to control
[29] = Metabolic stability in human liver microsomes assessed as intrinsic clearance in microsome measured per mg protein preincubated for 5 mins followed by NADPH addition by LC-MS/MS analysis; type: ADME; settings: read-out: CLH
[30] = Half life in C57BL/6 mouse at 1 mg/kg, iv measured for 0.5 to 12 htr by LC-MS/MS analysis; type: ADME, organism-based; settings: in vivo, time 0.5-12 hrs

Chain of TRAF2 and NCK-interacting protein kinase (Homo sapiens) (Q9UKE5 whole entry, looked up): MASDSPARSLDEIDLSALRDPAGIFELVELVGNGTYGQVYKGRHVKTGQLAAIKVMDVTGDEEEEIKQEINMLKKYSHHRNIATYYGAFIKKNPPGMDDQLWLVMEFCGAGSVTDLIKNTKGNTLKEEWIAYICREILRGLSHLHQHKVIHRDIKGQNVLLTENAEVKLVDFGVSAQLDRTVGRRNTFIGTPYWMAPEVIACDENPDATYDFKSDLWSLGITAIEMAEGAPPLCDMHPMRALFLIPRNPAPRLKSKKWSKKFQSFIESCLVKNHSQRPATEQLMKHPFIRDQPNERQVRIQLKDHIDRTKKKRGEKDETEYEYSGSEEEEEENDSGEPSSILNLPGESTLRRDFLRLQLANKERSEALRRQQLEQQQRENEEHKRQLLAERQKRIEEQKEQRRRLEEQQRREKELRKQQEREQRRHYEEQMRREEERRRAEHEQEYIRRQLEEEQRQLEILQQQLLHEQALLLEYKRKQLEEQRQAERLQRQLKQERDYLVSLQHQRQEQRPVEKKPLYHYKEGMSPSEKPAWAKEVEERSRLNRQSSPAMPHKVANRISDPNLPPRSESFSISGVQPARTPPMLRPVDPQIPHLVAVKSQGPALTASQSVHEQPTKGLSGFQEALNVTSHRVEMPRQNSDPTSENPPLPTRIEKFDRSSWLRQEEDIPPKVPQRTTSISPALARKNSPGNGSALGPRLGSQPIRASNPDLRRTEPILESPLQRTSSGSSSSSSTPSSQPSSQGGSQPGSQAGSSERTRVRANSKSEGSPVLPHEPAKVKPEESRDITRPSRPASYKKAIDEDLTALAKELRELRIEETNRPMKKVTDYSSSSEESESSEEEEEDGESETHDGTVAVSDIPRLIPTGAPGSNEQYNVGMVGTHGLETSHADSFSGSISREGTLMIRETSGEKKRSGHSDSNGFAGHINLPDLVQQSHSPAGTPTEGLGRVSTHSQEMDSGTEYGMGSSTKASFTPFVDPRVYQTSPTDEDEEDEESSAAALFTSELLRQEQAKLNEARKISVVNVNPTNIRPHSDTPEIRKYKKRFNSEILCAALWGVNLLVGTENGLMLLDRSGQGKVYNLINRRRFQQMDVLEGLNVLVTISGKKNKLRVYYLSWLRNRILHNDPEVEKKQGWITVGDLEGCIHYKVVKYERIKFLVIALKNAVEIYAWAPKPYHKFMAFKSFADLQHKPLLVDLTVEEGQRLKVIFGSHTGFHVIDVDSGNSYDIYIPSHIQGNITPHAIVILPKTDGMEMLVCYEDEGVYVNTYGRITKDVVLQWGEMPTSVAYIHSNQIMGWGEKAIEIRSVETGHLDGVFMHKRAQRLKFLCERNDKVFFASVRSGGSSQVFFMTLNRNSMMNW
Chain of Voltage-gated inwardly rectifying potassium channel KCNH2 (Q12809 whole entry): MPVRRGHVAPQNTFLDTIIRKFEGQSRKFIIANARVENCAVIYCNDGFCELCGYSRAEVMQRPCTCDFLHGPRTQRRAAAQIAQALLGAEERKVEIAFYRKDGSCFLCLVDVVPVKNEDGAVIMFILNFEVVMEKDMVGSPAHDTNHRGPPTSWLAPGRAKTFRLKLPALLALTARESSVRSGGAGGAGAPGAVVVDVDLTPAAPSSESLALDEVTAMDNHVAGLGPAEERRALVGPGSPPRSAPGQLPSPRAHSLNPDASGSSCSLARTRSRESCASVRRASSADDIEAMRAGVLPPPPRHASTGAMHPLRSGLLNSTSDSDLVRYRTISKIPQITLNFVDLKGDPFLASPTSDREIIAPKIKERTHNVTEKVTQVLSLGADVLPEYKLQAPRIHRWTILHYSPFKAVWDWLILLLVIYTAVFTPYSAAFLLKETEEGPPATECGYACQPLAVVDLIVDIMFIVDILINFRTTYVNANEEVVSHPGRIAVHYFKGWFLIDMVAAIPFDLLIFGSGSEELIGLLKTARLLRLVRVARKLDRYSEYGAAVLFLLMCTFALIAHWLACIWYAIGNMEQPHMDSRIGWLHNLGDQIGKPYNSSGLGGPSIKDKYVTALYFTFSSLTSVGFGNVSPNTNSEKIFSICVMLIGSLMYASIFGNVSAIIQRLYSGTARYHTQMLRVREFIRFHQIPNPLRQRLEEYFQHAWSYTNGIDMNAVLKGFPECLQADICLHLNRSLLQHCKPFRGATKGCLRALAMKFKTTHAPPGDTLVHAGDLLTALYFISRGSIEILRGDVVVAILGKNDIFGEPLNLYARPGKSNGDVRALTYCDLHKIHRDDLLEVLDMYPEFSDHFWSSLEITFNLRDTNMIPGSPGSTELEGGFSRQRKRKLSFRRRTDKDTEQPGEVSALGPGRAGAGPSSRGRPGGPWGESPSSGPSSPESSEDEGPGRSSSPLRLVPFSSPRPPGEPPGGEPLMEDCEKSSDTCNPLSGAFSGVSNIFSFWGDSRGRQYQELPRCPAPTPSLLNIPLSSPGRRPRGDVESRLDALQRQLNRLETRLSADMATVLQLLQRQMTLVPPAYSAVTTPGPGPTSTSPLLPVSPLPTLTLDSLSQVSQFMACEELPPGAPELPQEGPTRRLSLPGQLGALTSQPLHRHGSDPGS
Chain of Serine/threonine-protein kinase PLK2 (Q9NYY3 whole entry): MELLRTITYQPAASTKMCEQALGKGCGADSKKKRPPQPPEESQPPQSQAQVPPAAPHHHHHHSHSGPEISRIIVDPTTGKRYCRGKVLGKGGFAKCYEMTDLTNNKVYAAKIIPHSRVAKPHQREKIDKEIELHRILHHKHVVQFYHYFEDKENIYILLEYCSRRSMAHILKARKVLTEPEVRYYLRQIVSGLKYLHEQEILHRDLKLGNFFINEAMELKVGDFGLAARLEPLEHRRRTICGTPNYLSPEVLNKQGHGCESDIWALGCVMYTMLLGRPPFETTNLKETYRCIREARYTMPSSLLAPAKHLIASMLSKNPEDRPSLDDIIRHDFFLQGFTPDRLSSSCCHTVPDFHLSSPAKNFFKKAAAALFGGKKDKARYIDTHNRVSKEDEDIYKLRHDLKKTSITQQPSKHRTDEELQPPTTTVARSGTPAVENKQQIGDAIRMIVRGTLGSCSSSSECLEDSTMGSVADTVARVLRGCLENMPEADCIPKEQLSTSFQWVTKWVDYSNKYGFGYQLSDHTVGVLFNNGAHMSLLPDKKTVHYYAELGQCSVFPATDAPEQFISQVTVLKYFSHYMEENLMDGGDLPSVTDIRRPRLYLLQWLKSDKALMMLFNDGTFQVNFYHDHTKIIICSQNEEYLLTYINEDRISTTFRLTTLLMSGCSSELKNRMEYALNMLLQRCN
Chain of Epidermal growth factor receptor (Homo sapiens) (P00533 whole entry): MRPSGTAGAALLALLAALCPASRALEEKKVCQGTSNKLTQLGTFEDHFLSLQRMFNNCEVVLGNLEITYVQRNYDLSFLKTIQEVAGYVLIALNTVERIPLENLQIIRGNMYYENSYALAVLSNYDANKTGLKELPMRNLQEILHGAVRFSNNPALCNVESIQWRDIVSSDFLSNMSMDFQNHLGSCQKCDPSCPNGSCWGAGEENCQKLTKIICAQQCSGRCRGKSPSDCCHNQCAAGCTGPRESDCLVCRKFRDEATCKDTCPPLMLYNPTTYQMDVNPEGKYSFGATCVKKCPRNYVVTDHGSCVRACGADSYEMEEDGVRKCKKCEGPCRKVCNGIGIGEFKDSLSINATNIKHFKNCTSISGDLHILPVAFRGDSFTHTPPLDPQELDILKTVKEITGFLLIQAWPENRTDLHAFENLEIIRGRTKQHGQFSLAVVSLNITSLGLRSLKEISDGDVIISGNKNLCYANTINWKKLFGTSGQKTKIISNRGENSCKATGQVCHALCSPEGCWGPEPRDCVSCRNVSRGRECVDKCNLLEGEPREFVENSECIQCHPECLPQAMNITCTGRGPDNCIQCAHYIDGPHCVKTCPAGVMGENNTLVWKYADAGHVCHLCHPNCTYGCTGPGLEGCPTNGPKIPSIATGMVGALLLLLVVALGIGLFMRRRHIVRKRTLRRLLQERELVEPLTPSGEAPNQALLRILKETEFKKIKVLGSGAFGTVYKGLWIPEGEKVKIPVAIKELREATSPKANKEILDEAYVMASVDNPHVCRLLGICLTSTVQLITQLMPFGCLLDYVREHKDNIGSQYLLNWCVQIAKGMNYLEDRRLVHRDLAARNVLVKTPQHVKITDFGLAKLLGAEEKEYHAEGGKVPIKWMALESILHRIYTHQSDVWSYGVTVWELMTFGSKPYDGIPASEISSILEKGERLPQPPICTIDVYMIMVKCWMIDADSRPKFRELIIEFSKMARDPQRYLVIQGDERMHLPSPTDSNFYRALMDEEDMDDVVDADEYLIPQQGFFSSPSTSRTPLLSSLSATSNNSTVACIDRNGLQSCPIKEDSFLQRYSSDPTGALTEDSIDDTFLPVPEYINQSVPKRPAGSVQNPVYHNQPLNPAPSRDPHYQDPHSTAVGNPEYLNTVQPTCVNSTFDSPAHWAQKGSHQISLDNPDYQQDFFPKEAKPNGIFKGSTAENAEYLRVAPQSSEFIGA
Chain of Cytochrome P450 2C19 (P33261 whole entry): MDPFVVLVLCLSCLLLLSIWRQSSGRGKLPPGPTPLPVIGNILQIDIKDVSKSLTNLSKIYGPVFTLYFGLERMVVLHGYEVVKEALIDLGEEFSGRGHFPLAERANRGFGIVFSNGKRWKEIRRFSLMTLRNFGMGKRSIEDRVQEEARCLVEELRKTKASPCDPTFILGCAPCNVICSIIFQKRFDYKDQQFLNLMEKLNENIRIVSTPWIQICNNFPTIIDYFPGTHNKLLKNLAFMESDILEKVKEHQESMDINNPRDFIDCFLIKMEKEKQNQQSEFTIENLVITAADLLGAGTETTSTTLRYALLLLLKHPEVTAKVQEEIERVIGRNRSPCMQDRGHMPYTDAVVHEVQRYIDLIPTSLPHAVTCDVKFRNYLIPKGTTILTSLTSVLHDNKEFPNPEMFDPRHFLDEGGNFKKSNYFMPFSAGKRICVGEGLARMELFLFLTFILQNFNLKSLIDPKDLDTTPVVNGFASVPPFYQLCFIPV

## CC[C@@H]1C(=O)N(C)c2cnc(Nc3cc(N4CCN(C)CC4)cc(Cl)c3OCCCO)nc2N1C1CCCC1
[1]
  half-life: 16.6 min
[2]
  Cmax: 264 ng/mL
[3]
  microsomal CLint: 210 µL/min/mg
[4]
  IC50: 3.95 µM
[5]
  Activity: Non-toxic
Cytochrome P450 2C19
  IC50: 1.9 µM
[6]
  Activity: Non-toxic
[7]
  Activity: 107%
[8]
  IC50: > 10 µM
[9]
  Stability: Stable
[10]
  IC50: 44.2 µM
[11]
  Activity: Non-toxic
HEK-293T
  Activity: Dose-dependent-effect
[12]
  Activity: 110%
[13]
  Activity: Non-toxic
[14]
  Stability: Stable
[15]
  CLint scaled: 474 mL/min/kg
SW-620
  IC50: 0.0082 µM
[16]
  Activity: 70%
Cytochrome P450 2B6
  IC50: > 10 µM
Cytochrome P450 3A4
  IC50: > 10 µM
[17]
  Activity: 70%
[18]
  bioavailability: 45%
CCRF-CEM
  IC50: 0.041 µM
Homo sapiens
  Activity: 54%
HL-60
  IC50: 0.059 µM
[19]
  Activity: 44%
[20]
  Activity: Non-toxic
[21]
  Activity: 73%
[22]
  Activity: Non-toxic
[23]
  CLint scaled: 829 mL/min/kg
[24]
  Activity: 77%
NCI-H460
  IC50: 0.012 µM
[25]
  Activity: 11%
[26]
  Activity: Non-toxic
[27]
  Activity: Non-toxic
PC-9
  IC50: 0.775 µM
[28]
  Activity: 129%
[29]
  microsomal CLint: 68.3 µL/min/mg
[30]
  half-life: 35.4 min
